Measurements reported in patent US20080227820A1, “CYCLIC PHENYL-SUBSTITUTED INDAZOLS, A PROCESS FOR THEIR PRODUCTION AND THEIR USE AS ANTI-INFLAMMATORY AGENTS” (priority 2006, published 2008).

Columns and labels:
[1] = target: T1, androgen receptor (AR) (Homo sapiens, UniProt P10275); test: Binding to recombinant androgen receptor; settings: recombinantly produced receptor
T1 sequence (P10275 1-920): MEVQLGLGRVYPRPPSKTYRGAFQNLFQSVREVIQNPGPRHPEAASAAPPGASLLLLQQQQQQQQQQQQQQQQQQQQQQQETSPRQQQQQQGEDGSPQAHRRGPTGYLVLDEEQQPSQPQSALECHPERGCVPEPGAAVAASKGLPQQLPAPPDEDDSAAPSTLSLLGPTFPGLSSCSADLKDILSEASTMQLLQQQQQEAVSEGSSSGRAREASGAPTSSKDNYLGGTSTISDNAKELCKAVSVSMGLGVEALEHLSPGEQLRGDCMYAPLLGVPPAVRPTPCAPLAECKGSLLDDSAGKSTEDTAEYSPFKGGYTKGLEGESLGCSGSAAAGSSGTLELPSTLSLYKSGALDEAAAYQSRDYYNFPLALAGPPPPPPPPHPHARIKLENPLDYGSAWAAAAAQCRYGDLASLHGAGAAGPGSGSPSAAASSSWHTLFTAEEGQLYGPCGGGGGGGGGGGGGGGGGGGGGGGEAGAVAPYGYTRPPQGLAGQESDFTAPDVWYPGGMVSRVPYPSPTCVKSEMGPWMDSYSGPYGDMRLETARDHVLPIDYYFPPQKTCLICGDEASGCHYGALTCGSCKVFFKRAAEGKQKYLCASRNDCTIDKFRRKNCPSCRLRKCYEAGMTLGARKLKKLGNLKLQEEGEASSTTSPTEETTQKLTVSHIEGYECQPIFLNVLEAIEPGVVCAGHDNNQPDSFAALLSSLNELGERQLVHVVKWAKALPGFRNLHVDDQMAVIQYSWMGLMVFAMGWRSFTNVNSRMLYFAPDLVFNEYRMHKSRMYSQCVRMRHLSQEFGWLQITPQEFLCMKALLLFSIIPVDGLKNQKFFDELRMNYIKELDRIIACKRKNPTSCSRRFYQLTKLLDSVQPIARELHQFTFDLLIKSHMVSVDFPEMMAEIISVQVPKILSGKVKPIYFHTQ
Text: (§1) The binding of the substances to the glucocorticoid receptor (GR) and other steroid hormone receptors (mineral corticoid receptor (MR), progesterone receptor (PR) and androgen receptor (AR)) is examined with the aid of recombinantly produced receptors. Cytosol preparations of Sf9 cells, which had been infected with recombinant baculoviruses, which code for the GR, are used for the binding studies. In comparison to reference substance [^3H]-dexamethasone, the substances show a high to very high affinity to GR.

[2] = target: ER; test: Steroid receptor binding, ER
[3] = target: T2, glucocorticoid receptor (GR) (Homo sapiens, UniProt P04150); test: Binding to recombinant glucocorticoid receptor, Sf9 cytosol, vs [3H]-dexamethasone; settings: [3H]-dexamethasone reference
T2 construct: made in house; host or cells: Sf9 cells infected with recombinant baculovirus (cytosol preparation)
T2 sequence (P04150 1-777): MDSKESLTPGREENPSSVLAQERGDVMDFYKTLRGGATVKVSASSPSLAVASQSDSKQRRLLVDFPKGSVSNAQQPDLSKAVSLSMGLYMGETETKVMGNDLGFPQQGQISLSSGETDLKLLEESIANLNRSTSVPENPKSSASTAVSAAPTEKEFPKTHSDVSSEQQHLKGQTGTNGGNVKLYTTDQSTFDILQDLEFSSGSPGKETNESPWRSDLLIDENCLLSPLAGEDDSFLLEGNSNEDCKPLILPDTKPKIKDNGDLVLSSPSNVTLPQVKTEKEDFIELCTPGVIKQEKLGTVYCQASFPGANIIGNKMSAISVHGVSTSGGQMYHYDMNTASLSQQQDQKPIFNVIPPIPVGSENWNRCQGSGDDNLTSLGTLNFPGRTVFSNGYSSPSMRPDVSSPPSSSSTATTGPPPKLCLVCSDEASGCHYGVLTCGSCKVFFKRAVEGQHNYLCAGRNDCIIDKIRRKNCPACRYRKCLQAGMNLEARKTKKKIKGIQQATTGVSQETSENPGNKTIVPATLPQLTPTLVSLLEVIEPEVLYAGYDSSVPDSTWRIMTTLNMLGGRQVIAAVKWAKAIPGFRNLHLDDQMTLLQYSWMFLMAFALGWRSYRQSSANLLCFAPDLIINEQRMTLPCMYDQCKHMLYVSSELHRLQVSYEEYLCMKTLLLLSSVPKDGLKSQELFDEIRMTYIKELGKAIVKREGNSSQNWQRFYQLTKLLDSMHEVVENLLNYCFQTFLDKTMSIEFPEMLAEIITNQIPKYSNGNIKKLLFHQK
Text: as §1

[4] = target: T3, progesterone receptor (PR) (Homo sapiens, UniProt P06401); test: Binding to recombinant progesterone receptor; settings: recombinantly produced receptor
T3 sequence (P06401 1-933): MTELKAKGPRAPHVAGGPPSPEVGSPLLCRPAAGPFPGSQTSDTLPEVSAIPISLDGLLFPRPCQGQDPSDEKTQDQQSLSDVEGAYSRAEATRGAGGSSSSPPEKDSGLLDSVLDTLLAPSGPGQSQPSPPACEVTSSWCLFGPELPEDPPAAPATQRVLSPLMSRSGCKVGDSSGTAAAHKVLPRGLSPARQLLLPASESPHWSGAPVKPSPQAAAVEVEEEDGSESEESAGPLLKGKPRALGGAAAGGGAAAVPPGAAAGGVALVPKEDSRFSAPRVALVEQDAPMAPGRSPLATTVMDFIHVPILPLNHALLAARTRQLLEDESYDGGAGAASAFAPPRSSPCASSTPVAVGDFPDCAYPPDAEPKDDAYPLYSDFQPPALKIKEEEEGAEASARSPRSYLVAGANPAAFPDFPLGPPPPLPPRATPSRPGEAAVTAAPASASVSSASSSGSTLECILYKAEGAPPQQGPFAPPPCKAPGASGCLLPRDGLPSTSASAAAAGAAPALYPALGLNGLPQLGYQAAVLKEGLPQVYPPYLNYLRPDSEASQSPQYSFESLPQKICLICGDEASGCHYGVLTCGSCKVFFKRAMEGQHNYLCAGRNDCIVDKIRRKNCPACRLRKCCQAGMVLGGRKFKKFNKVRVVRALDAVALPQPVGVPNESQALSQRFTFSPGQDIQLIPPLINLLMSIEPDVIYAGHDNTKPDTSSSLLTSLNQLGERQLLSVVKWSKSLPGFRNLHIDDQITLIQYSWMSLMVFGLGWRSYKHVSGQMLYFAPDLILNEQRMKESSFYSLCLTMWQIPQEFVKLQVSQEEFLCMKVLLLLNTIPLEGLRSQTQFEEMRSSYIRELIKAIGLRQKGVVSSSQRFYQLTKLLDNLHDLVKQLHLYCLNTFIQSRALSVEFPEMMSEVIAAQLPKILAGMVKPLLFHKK
Text: as §1

[5] = target: T4, mineral corticoid receptor (MR) (Homo sapiens, UniProt P08235); test: Binding to recombinant mineral corticoid receptor; settings: recombinantly produced receptor
T4 sequence (P08235 1-984): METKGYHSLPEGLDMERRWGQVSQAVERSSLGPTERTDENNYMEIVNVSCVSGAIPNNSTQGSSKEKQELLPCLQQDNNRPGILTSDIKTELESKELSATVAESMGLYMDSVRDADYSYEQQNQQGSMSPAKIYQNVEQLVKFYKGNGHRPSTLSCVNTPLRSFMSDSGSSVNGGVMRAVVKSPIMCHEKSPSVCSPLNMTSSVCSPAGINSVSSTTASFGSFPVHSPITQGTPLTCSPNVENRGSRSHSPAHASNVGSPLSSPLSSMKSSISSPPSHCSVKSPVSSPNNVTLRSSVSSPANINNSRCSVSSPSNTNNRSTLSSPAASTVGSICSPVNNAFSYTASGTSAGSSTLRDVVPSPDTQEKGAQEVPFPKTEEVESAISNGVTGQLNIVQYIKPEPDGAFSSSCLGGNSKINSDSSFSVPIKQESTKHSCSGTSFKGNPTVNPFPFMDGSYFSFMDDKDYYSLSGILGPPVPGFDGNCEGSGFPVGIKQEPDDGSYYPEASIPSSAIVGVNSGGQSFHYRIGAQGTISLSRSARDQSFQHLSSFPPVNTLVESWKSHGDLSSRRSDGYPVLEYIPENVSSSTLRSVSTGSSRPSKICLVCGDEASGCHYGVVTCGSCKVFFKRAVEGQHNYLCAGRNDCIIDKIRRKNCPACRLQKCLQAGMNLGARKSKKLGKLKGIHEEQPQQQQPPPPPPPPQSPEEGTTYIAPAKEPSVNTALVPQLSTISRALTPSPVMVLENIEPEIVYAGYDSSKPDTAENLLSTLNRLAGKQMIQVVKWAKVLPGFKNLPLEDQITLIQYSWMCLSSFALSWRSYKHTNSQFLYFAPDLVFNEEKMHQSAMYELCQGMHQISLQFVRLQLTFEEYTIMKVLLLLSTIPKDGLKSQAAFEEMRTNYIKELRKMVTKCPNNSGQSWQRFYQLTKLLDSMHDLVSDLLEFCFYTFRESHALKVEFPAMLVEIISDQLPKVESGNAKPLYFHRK
Text: as §1

[6] = test system: human monocyte cell line THP-1; test: Inhibition of LPS-triggered IL-8 secretion in THP-1 cells (ELISA); assay type: cell-based
Procedure: The concentration of the cytokines was determined in the supernatant by means of commercially available ELISA kits.

IC50 [1]: > 1000 nM | IC50 [2]: > 1000 nM | IC50 [3]: 16.5 nM | IC50 [4]: > 1000 nM | IC50 [5]: > 1000 nM | IC50 ([6]; Homo sapiens, THP-1, supernatant ELISA, read-out: IC50(IL8)): 2.4 nM
SMILES: CC[C@@H]1C[C@](O)(C(F)(F)F)[C@@H](Nc2cccc3c2cnn3-c2ccc(F)cc2)c2ccc(F)c(O)c21 [Example 4]
eff. relative to dexamethasone (IL-8 inhibition) ([6]; THP-1, relative to dexamethasone): 91%
